Test results as given in ChEMBL document CHEMBL4742399, “New compounds for use as a therapeutically active substance and in particular for use in the treatment of tumors” (2019).
The source made the active and inactive calls. The calls are words filed in the database; no cut-off is given here.

Legend:
[1] = target: T1, Dual specificity tyrosine-phosphorylation-regulated kinase 1B (Homo sapiens, UniProt Q9Y463); assay: Inhibition of GST-tagged DYRK1B (unknown origin) assessed as reduction p27 Ser10 phosphorylation at 0.1 to 10 uM; settings: dose 0.1-10 µM
Target sequence in this assay (Q9Y463 whole entry, looked up): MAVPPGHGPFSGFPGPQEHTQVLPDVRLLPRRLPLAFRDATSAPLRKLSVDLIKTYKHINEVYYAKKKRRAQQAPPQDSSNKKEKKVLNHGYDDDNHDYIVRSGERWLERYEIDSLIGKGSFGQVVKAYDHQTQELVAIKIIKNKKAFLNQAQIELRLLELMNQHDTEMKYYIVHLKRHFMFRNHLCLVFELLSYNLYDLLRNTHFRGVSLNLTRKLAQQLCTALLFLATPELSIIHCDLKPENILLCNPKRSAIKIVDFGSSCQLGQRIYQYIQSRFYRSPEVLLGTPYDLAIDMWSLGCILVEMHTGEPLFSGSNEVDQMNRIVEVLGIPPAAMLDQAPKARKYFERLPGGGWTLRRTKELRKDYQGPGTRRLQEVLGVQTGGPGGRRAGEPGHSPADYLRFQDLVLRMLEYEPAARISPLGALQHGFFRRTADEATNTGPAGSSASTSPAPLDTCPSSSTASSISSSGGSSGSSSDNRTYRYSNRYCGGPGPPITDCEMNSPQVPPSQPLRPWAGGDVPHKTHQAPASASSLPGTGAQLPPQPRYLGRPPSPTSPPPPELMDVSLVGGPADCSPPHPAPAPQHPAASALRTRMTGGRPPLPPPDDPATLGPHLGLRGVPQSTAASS

[2] = target: T1, Dual specificity tyrosine-phosphorylation-regulated kinase 1B; assay: Inhibition of GST-tagged DYRK1B (unknown origin) incubated for 30 mins using DYRKtide by ADP-Glo assay
Target sequence in this assay (Q9Y463 whole entry): as the sequence (Q9Y463 whole entry, looked up) above

[3] = target: T1, Dual specificity tyrosine-phosphorylation-regulated kinase 1B; assay: Inhibition of DYRK1B un human HT-29 cells assessed as reduction p27 Ser10 phosphorylation at 2.5 to 10 uM; format: cell-based; settings: dose 2.5-10 µM
Target sequence in this assay (Q9Y463 whole entry, looked up): as above

[4] = system: HT-29; assay: Cytotoxicity against human HT-29 multicellular tumor spheroid cells at 0.15 to 20 uM incubated for 48 hrs by Hoechst and SYTOX staining based assay; format: functional, cell-based; settings: dose 0.15-20 µM
[5] = system: HT-29; assay: Cytotoxicity against human HT-29 multicellular tumor spheroid cells at 5 uM incubated for 48 hrs by Hoechst and SYTOX staining based assay; format: functional, cell-based
[6] = system: HT-29; assay: Cytotoxicity against human HT-29 multicellular tumor spheroid cells at 5 uM incubated for 48 hrs under hypoxic conditions by Hoechst and SYTOX staining based assay; format: functional, cell-based

| inhibition [1] | IC50 [2] | inhibition [3] | Structure (SMILES) | Activity [4] | Activity [5] | Activity [6] |
| --- | --- | --- | --- | --- | --- | --- |
| Active | 4 µM | Active | Fc1ccccc1-n1cc(-c2ccnc(NCc3ccncc3)n2)cn1 | Active | Active | Active |
| – | 3 µM | – | CCNc1nccc(-c2cnn(-c3ccccc3F)c2)n1 | – | – | – |
| – | 3 µM | – | COc1ccccc1-n1cc(-c2ccnc(NCc3c(C)n[nH]c3C)n2)cn1 | – | – | – |
| – | 2 µM | – | Fc1ccccc1-n1cc(-c2ccnc(NC3CCOCC3)n2)cn1 | – | – | – |
